Reference: patent US8557859B2, “Immunomodulatory compositions” (Summit (Wales) Limited, priority 2003, dated 2013)
Read-outs that look alike come from different tables or passages of the source.

Legend:
Dendritic cells [1] = test: Induction of IL-12 secretion in dendritic cells (ELISA); format: cell-based, BALB/c mice; details: for IL-12 RELEASE: dendritic cells, compounds 50 μg/ml and 20 μg/ml, 24 hrs (or 48 hrs)
Method: BALB/c male and female mice bred and maintained at the University of Strathclyde under conventional conditions were used at 8 weeks old.
Bone marrow was obtained from the femurs of mice. The femurs were washed in 70% ethanol and placed in a clean petri dish. Dendritic cell (DC) medium (2.5% granulocyte-macrophage colony-stimulating factor (GM-CSF), 10% […] foetal calf serum, 1% L-glutamine, 1% Penicillin/Streptomycin in RPMI-1640 medium) was injected into the bone marrow of the femur by a pumping action and the cells and medium were collected. 1 ml of the cells in medium was added to a 75 cm^2 flask with 15 mls of DC medium. The flasks were then incubated at 37° C., 5% CO2 to allow DC growth and development. After 5 days an additional 10 mls of DC medium was added.
After 10 days of incubation of bone marrow with GM-CSF, the dendritic cells were harvested. This process was carried out in a tissue culture hood. The contents of the flasks were poured into centrifuge tubes to ensure collection of floating DCs. Approximately 10 mls of cooled phosphate buffered saline (PBS) was added to each empty flask, the flasks gently agitated and the contents collected. […] The collected contents of the flasks were centrifuged for 5 minutes at 200 g and the pellet resuspended in 2 mls of DC medium without GM-CSF. A cell count was then carried out.
Cells were counted using a haemocytometer. Approximately 20 μl of the resuspended cells was pipetted into the chamber of the haemocytometer, the cells were adjusted to the correct cell concentration (approx. 5×10^4, and not less than 1×10^4, per well) and then plated out for assay.
The plates were incubated overnight at 37° C. with 5% CO2 and allowed to settle (harvesting stimulates them). The next day the compounds (50 μg/ml and 20 μg/ml) and controls were added then again incubated at 37° C. with 5% CO2 for 24 hrs (or 48 hrs). Harvesting and addition of the compounds was all done in a hood. The plates were then frozen to kill the cells and once defrosted the supernatant analysed as described below.
Using an enzyme linked immunosorbent assay (ELISA) IL-12 concentration in the supernatants was measured. All reagents used in this assay were from PharMingen. A 96-well flat-bottomed ELISA plate was coated with purified rat anti-mouse IL-12 (p40/p70) MAb (Cat no. 554478) at 2 μg/ml diluted in PBS pH 9.0 at 50 μl/well. The plate was then covered in cling film and incubated at 4° C. Following incubation the plate was washed 3 times in washing buffer and dried. 200 μl of blocking buffer (10% foetal calf serum in PBS pH 7.0) was added to each well then covered in cling film and incubated at 37° C. for 45 minutes. The plate was washed 3 times and dried. Recombinant mouse Il-12 standard was added at 30 μl in duplicate wells, starting at 10 ng/ml then 5, 2.5, 1.25, 0.625, 0.31, 0.156, 0.078, 0.039, 0.020, 0.010, 0.005 ng/ml. Standards were diluted in blocking buffer. The supernatant samples were added in at 50 μl/well. The plate was then covered in cling film and incubated for 2 hours at 37° C. The plate was then washed 4 times, dried and the secondary antibody added.
Biotin labelled anti-mouse IL-12 (p40/p70) MAb (Cat no. 18482D) at 1 μg/ml (diluted in blocking buffer) was added to each well at a volume of 100 μl/well. The plate was covered in cling film and incubated at 37° C. for 1 hour. The plate was then washed 5 times, dried and the conjugate added. Streptavidin-AKP (Cat no. 13043E) at 100 μl/well was added at a dilution of 1/2000 in blocking buffer followed by incubation under cling film at 37° C. for 45 minutes.
The plate was finally washed 6 times, dried and the substrate added. pNPP (Sigma) in glycine buffer at 1 mg/ml was added at 100 μl/well. The plate was then covered in tinfoil, incubated at 37° C. and checked every 30 minutes for a colour change.
The plate was then read at 405 nm using a SPECTRAmax 190 spectrometer.

Dendritic cells [2] = format: cell-based, BALB/c mice
Method: Bone marrow was obtained from the femurs of mice. The femurs were washed in 70% ethanol and placed in a clean petri dish. Dendritic cell (DC) medium (2.5% granulocyte-macrophage colony-stimulating factor (GM-CSF), 10% heat and activated foetal calf serum, 1% L-glutamine, 1% Penicillin/Streptomycin in RPMI-1640 medium) was injected into the bone marrow of the femur by a pumping action and the cells and medium were collected. 1 ml of the cells in medium was added to a 75 cm^2 flask with 15 mls of DC medium. The flasks were then incubated at 37° C., 5% CO2 to allow DC growth and development. After 5 days an additional 10 mls of DC medium was added.
After 10 days of incubation of bone marrow with GM-CSF, the dendritic cells were harvested. This process was carried out in a tissue culture hood. The contents of the flasks were poured into centrifuge tubes to ensure collection of floating DCs. Approximately 10 mls of cooled phosphate buffered saline (PBS) was added to each empty flask, the flasks gently agitated and the contents collected. This ensured recovery of adhesive DCs. […]
Cells were counted using a haemocytometer. […]
The plates were incubated overnight at 37° C. with 5% CO2 and allowed to settle (harvesting stimulates them). […] The plates were then frozen to kill the cells and once defrosted the supernatant analysed as described below.

Spleen cells = test: Cytokine modulation in spleen cells: splenocyte IFN-γ production; format: cell-based, BALB/c mice; details: for IFN-γ: splenocytes
Method: BALB/c male and female mice bred and maintained at the University of Strathclyde under conventional conditions were used at varying age.
The mouse spleen was removed aseptically and placed in a sterile petri dish containing 5 mls of complete medium (RPMI, 1% L-Glutamine, 1% Penicillin/Streptomycin and 10% foetal calf serum). Cells suspensions were prepared by using the end of a syringe and grinding the spleen through a wire mesh. The cell suspension was then centrifuged at 1000 rpm for 5 minutes. To remove the erythrocytes, the cell pellet was resuspended in Boyle's solution (Tris 0.17M & Ammonium Chloride 0.16M) and centrifuged again for 5 minutes. The pellet was then washed in medium a further two times, then resuspended in 3 mls medium. A cell count was then carried out.
All spleen cell experiments were carried out in 96-well tissue culture plates. […] Unstimulated wells contained 100 μl of cells and 100 μl of medium. The stimulated wells contained 100 μl of cells plus 50 μl of LPS at 1 μg/ml or 50 μl anti-CD3 at 0.5 μg/ml and 50 μl of medium. The remaining wells contained 100 μl cells, 50 μl of MNLP compound and either 50 μl of anti-CD3 or medium alone.
The appropriate Mabs and standards were used according to the protocol described for IL-12 (described in Example 1, above).

α-D-glucosidase [3] = test: Glycosidase inhibition, α-D-glucosidase (Bacillus); format: biochemical, Bacillus stearothermophilus; details: 1 mg/ml
Method: (§1) All enzymes were purchased from Sigma, as were the appropriate p-nitrophenyl substrates. Assays were carried out in microtitre plates. Enzymes were assayed in 0.1 M citric acid/0.2M di-sodium hydrogen phosphate (McIlvaine) buffers at the optimum pH for the enzyme. All assays were carried out at 20° C. For screening assays the incubation assay consisted of 10 μl of enzyme solution, 10 μl of inhibitor solution (made up in water) and 50 μl of the appropriate 5 mM p-nitrophenyl substrate (3.57 mM final conc.) made up in McIlvaine buffer at the optimum pH for the enzyme.
(§2) The reactions were stopped with 0.4M glycine (pH 10.4) during the exponential phase of the reaction, which was determined at the beginning of the assay using blanks with water, which were incubated for a range of time periods to measure the reaction rate using 5 mM substrate solution. Endpoint absorbances were read at 405 nm with a Biorad microtitre plate reader (Benchmark). Water was substituted for the inhibitors in the blanks.

β-D-glucosidase = test: Glycosidase inhibition, β-D-glucosidase; format: biochemical, Almonds (Prunus sp.); details: for % inhibition glucosidase: 1 mg/ml
Method: as §1, §2

Naringinase = test: Glycosidase inhibition, Naringinase; format: biochemical, Penecillium decumbens; details: 1 mg/ml
Method: as §1, §2

[4] = system: N-acetyl-β-D-glucosaminidase; test: Glycosidase inhibition, N-acetyl-β-D-glucosaminidase; format: biochemical, Bovine kidney; details: 1 mg/ml
Method: as §1, §2

[5] = system: glycosidase enzymes of Table 4.1; test: Glycosidase inhibition, all enzymes tested (Table 4.1); format: biochemical; details: 1 mg/ml; result in words
Method: as §1, §2

[6] = system: spleen cells from Leishmania major infected BALB/c mice; test: Non-healing leishmaniasis model: splenocyte IFN-γ; format: cell-based; details: for IFN-γ: Table 10.1
[7] = system: spleen cells from Leishmania major infected BALB/c mice; test: Non-healing leishmaniasis model: splenocyte IL-5; format: cell-based
α-D-glucosidase [8] = target: T1, α-D-glucosidase (Saccharomyces cerevisiae, UniProt P53341); test: Glycosidase inhibition, α-D-glucosidase (yeast); format: biochemical, Saccharomyces cerevisiae (Baker's yeast); details: at a concentration of 800 μM
T1 construct: purchased Sigma
Method: as §1, §2

β-D-galactosidase = test: Glycosidase inhibition, β-D-galactosidase; format: biochemical, Bovine liver; details: 1 mg/ml; second galactosidase line
Method: as §1, §2

[9] = target: rabbit gut mucosa α-D-glucosidase; test: Inhibition of rabbit gut mucosa α-D-glucosidase; format: biochemical
[10] = target: T2, rabbit small intestine sucrase (Oryctolagus cuniculus, UniProt P07768); test: Inhibition of rabbit small intestine sucrase; format: biochemical; details: at a concentration of 700 μM
T2 construct: from tissue; host or cells: rabbit small intestine

[11] = system: Na^+-dependent D-glucose uptake into ovine intestinal brush border membrane vesicles; test: Effect on glucose transport (competition assay with labelled D-glucose); format: biochemical
α-mannosidase = details: background statement; cited from earlier work

T2 sequence (P07768 whole entry): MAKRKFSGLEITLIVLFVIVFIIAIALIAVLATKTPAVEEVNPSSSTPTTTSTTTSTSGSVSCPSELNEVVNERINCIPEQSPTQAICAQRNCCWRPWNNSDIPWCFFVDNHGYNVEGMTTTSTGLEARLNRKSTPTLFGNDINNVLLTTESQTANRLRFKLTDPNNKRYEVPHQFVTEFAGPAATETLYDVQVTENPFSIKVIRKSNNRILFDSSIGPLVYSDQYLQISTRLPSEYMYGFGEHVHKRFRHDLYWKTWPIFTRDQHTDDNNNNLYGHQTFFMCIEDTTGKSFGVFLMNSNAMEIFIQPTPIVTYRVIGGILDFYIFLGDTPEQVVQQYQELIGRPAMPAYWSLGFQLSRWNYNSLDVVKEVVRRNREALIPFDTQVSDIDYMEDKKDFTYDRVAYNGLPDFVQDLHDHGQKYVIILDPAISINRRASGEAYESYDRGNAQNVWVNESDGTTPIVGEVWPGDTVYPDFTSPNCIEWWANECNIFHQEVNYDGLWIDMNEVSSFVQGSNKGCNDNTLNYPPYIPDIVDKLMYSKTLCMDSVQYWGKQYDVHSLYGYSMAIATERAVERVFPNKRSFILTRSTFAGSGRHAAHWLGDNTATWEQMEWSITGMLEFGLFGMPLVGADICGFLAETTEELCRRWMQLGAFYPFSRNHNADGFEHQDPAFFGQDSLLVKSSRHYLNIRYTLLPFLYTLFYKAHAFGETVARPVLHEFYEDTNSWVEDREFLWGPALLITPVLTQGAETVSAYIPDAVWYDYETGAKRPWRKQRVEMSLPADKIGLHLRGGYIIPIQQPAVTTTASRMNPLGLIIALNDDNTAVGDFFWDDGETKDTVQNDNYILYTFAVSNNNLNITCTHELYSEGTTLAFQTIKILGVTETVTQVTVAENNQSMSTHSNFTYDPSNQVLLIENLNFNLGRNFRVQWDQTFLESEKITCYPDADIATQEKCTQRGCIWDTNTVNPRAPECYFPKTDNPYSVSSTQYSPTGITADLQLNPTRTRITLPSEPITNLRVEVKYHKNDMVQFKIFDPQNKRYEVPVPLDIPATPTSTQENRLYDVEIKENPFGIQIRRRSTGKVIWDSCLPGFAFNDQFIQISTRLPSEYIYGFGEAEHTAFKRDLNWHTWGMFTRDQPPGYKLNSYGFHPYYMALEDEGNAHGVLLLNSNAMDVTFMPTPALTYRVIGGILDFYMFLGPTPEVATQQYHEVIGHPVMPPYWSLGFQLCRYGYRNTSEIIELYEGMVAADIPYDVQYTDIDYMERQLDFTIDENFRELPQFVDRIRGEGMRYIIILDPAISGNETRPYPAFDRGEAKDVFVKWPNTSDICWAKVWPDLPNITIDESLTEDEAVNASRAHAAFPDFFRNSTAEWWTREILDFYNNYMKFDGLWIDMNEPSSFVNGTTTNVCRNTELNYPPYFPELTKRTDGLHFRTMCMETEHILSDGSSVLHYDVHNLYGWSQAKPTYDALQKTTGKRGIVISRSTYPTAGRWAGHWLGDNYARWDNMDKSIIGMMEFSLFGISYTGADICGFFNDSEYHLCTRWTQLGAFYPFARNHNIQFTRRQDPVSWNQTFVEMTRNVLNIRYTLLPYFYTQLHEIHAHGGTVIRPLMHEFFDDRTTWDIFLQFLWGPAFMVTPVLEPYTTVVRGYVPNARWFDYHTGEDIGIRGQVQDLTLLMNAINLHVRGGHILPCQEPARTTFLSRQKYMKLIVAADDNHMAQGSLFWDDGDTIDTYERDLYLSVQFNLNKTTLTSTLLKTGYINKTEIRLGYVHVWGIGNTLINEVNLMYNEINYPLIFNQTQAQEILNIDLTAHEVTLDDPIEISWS
T1 sequence (P53341 whole entry): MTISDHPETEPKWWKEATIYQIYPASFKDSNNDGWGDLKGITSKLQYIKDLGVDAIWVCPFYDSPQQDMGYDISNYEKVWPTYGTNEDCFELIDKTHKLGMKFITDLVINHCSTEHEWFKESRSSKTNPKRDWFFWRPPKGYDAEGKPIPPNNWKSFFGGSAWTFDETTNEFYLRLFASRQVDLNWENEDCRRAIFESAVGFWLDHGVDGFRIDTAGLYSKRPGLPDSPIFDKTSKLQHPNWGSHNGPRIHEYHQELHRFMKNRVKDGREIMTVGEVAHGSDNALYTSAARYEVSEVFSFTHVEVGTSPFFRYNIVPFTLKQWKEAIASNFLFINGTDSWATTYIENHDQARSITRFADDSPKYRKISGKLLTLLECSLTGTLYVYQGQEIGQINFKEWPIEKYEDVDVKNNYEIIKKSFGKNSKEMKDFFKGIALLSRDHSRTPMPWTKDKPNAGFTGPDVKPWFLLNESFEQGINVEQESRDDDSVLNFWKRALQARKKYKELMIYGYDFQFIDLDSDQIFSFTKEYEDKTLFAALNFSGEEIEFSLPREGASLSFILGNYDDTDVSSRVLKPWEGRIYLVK

OC[C@H]1[C@@H](O)[C@H](O)[C@H]2[C@@H](O)[C@@H](O)CN21 [3,7-diepi-casuarine (10), (1R,2R,3S,6S,7R,7aR)-3-(Hydroxymethyl)-1,2,6,7-tetrahydroxypyrrolizidine]
IL-12 RELEASE (Dendritic cells [1]): Yes
IL-2 (units/ml) (Dendritic cells [2]; compound + LPS): 0.69 units/ml
IL-2 (units/ml) (Dendritic cells [2]; treatment alone): 0.00 units/ml
IFN-γ (Spleen cells; Table 3.1, treatment alone): 0.22 ng/mL
% inhibition gluc (Bacillus) (α-D-glucosidase [3]): −7%
% inhibition glucosidase (β-D-glucosidase): 5%
% inhibition Naringinase (Naringinase): 6%
% inhibition N-acetyl-β-gluc [4]: −6%
inhibition of any of the enzymes tested [5]: do not significantly inhibit any of the enzymes tested
IFN-γ ([6]; compound + L. major Ag): 5.5 ng/mL
IFN-γ ([6]; treatment alone): ~0.5 ng/mL
IFN-γ (healing Th1 response) ([6]; result in words): enhances IFN-γ
IL-5 ([7]; Table 10.2, compound + αCD3): 150 pg/mL
Th2 response (IL-5) ([7]; result in words): suppressing the Th2 response (via downregulation of the Th2 cytokine IL-5)

O[C@H]1[C@H](O)[C@@H](O)CN2CC[C@H](O)[C@H]12 [Castanospermine (20), Castanospermine, reference compound]
IL-12 RELEASE (Dendritic cells [1]): No
IFN-γ (Spleen cells; Table 3.2, compound + αCD3): 9.0 ng/mL
IFN-γ (Spleen cells; Table 3.2, treatment alone): <1.0 ng/mL
IFN-γ secretion/production in splenocytes (Spleen cells; result in words): inhibits the production of this cytokine
inhibition of yeast α-D-glucosidase (α-D-glucosidase [8]): not being inhibitory
% inhibition gluc (Bacillus) (α-D-glucosidase [3]): 6%
% inhibition glucosidase (β-D-glucosidase): 88%
Ki (β-D-glucosidase; read-out: Ki with almond 6-D-glucosidase): 9 µM
% inhibition galactosidase (β-D-galactosidase): 16%
% inhibition Naringinase (Naringinase): 39%
% inhibition N-acetyl-β-gluc [4]: 16%
IC50 [9]: 8 µM
inhibition of rabbit small intestine sucrase [10]: inhibited
Glucose uptake ([11]; initial rate, control 240): 225 pmol/s/mg
glucose transport ([11]; result in words): slightly inhibited

O[C@H]1[C@H]2[C@H](O)CCCN2C[C@H]1O [Swainsonine (4), Swainsonine]
IL-12 RELEASE (Dendritic cells [1]): No
IL-12 secretion (Dendritic cells [1]; tested at 50 μg/ml): failed to induce IL-12 secretion
inhibition of α-mannosidase (α-mannosidase): potent and specific inhibitor of α-mannosidase
